Legend:
[1] = target: Signal transducer and activator of transcription 3 (Homo sapiens, UniProt P40763); experiment: Inhibition of STAT3 in human HEK293T cells assessed as inhibition of IL-6 stimulated STAT3 phosphorylation by dual-luciferase reporter assay; assay type: cell-based
[2] = Inhibition of ATP production in human BXPC-3 cells incubated for 20 to 24 hrs by ATP assay kit method; assay type: functional, cell-based
[3] = tested on: BXPC-3; experiment: Anti-proliferative activity against human BXPC-3 cells assessed as cell growth inhibition incubated for 72 hrs by MTS assay; assay type: functional, cell-based; conditions: BXPC-3, 72 h
[4] = tested on: Capan-2; experiment: Anti-proliferative activity against human Capan-2 cells assessed as cell growth inhibition incubated for 72 hrs by MTS assay; assay type: functional, cell-based; conditions: Capan-2, 72 h
[5] = Microsomal stability in human liver microsomes assessed as half life incubated upto 40 mins in presence of NADPH by LC-MS/MS analysis; assay type: ADME, Microsome
[6] = Microsomal stability in rat liver microsomes assessed as half life incubated upto 40 mins in presence of NADPH by LC-MS/MS analysis; assay type: ADME, Microsome
[7] = Microsomal stability in dog liver microsomes assessed as half life incubated upto 40 mins in presence of NADPH by LC-MS/MS analysis; assay type: ADME, Canis lupus familiaris, Microsome
[8] = Microsomal stability in human liver microsomes assessed as intrinsic clearance incubated upto 40 mins in presence of NADPH by LC-MS/MS analysis; assay type: ADME, Microsome; conditions: read-out: CLH
[9] = Microsomal stability in rat liver microsomes assessed as intrinsic clearance incubated upto 40 mins in presence of NADPH by LC-MS/MS analysis; assay type: ADME, Microsome; conditions: read-out: CLH
[10] = Microsomal stability in dog liver microsomes assessed as intrinsic clearance incubated upto 40 mins in presence of NADPH by LC-MS/MS analysis; assay type: ADME, Canis lupus familiaris, Microsome; conditions: read-out: CLH
[11] = Microsomal stability in human liver microsomes assessed as compound remaining incubated for 60 mins in presence of NADPH by LC-MS/MS analysis; assay type: ADME, Microsome; conditions: read-out: Stability
[12] = Microsomal stability in rat liver microsomes assessed as compound remaining incubated for 60 mins in presence of NADPH by LC-MS/MS analysis; assay type: ADME, Microsome; conditions: read-out: Stability
[13] = Microsomal stability in dog liver microsomes assessed as compound remaining incubated for 60 mins in presence of NADPH by LC-MS/MS analysis; assay type: ADME, Canis lupus familiaris, Microsome; conditions: read-out: Stability
[14] = target: T1, Cytochrome P450 1A2 (Homo sapiens, UniProt P05177); experiment: Inhibition of CYP1A2 in human liver microsomes using phenacetin as substrate incubated for 30 mins in presence of NADPH by HPLC analysis; assay type: ADME, Microsome
T1 sequence (P05177 whole entry): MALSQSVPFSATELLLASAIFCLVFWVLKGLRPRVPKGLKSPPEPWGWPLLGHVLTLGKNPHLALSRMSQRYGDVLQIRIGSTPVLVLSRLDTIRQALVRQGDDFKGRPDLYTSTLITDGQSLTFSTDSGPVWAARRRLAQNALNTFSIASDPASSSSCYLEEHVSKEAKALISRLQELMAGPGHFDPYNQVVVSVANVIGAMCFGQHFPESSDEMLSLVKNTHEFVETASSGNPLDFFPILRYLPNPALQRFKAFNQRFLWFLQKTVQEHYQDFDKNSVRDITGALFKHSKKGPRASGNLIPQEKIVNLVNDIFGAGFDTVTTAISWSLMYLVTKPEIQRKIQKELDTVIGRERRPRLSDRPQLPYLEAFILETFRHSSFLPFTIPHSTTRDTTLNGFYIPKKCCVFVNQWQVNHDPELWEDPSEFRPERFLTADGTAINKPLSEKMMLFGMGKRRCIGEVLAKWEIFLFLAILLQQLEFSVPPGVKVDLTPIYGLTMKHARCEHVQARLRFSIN

[15] = target: Cytochrome P450 2C9 (Homo sapiens, UniProt P11712); experiment: Inhibition of CYP2C9 in human liver microsomes using tolbutamide as substrate incubated for 60 mins in presence of NADPH by HPLC analysis; assay type: ADME, Microsome
[16] = target: Cytochrome P450 2C19 (Homo sapiens, UniProt P33261); experiment: Inhibition of CYP2C19 in human liver microsomes; assay type: ADME, Microsome
[17] = target: Cytochrome P450 2D6 (Homo sapiens, UniProt P10635); experiment: Inhibition of CYP2D6 in human liver microsomes using dextromethorphan as substrate incubated for 60 mins in presence of NADPH by HPLC analysis; assay type: ADME, Microsome
[18] = target: Cytochrome P450 3A4 (Homo sapiens, UniProt P08684); experiment: Inhibition of CYP3A4 in human liver microsomes using testosterone as substrate in presence of NADPH by HPLC analysis; assay type: ADME, Microsome
[19] = Cmax in BALB/c mouse at 1 mg/kg,iv measured upto 24 hrs by LC-MS/MS analysis; assay type: ADME, organism-based; parameters: dose 1 mg/kg, time < 24 hrs, route iv; conditions: in vivo
[20] = AUC (0-24hrs) in BALB/c mouse at 1 mg/kg,iv measured upto 24 hrs by LC-MS/MS analysis; assay type: ADME, organism-based; parameters: time < 24 hrs, dose 1 mg/kg, route iv; conditions: in vivo
[21] = AUC (0-infinity) in BALB/c mouse at 1 mg/kg,iv measured upto 24 hrs by LC-MS/MS analysis; assay type: ADME, organism-based; parameters: dose 1 mg/kg, time < 24 hrs, route iv; conditions: in vivo
[22] = Volume of distribution at steady state in BALB/c mouse at 1 mg/kg,iv measured upto 24 hrs by LC-MS/MS analysis; assay type: ADME, organism-based; conditions: in vivo, iv, 1 mg/kg, 24 h
[23] = Clearance at steady state in BALB/c mouse at 1 mg/kg,iv measured upto 24 hrs by LC-MS/MS analysis; assay type: ADME, organism-based; conditions: in vivo, iv, 1 mg/kg, 24 h
[24] = MRT (0 to last) in BALB/c mouse at 1 mg/kg,iv measured upto 24 hrs by LC-MS/MS analysis; assay type: ADME, organism-based; conditions: in vivo, iv, 1 mg/kg, 24 h
[25] = Half life in BALB/c mouse at 1 mg/kg,iv measured upto 24 hrs by LC-MS/MS analysis; assay type: ADME, organism-based; conditions: in vivo
[26] = Cmax in BALB/c mouse at 10 mg/kg,po measured upto 24 hrs by LC-MS/MS analysis; assay type: ADME, organism-based; parameters: time < 24 hrs, dose 10 mg/kg, route po; conditions: in vivo
[27] = AUC (0-24hrs) in BALB/c mouse at 10 mg/kg,po measured upto 24 hrs by LC-MS/MS analysis; assay type: ADME, organism-based; parameters: dose 10 mg/kg, time < 24 hrs, route po; conditions: in vivo
[28] = AUC (0-infinity) in BALB/c mouse at 10 mg/kg,po measured upto 24 hrs by LC-MS/MS analysis; assay type: ADME, organism-based; parameters: time < 24 hrs, dose 10 mg/kg, route po; conditions: in vivo
[29] = MRT (0 to last) in BALB/c mouse at 10 mg/kg,po measured upto 24 hrs by LC-MS/MS analysis; assay type: ADME, organism-based; conditions: in vivo
[30] = Half life in BALB/c mouse at 10 mg/kg,po measured upto 24 hrs by LC-MS/MS analysis; assay type: ADME, organism-based; conditions: in vivo
[31] = Oral bioavailability in BALB/c mouse at 10 mg/kg,po measured upto 24 hrs by LC-MS/MS analysis; assay type: ADME, organism-based; conditions: in vivo
[32] = tested on: BXPC-3; experiment: Antitumor activity against human BXPC-3 cells xenografted BALB/c mouse model assessed as tumor growth inhibition at 30 mg/kg,po administrated once daily for 8 weeks; assay type: functional; conditions: BXPC-3, 1344 h, read-out: TGI
[33] = Toxicity in BALB/c mouse xenografted with human BXPC-3 cells assessed as body weight change at 30 mg/kg,po administrated once daily for 8 weeks; assay type: organism-based; conditions: in vivo, 1344 h
[34] = Toxicity in BALB/c mouse xenografted with human BXPC-3 cells assessed as effect on heart at 30 mg/kg,po administrated once daily for 8 weeks by H and E staining based microscopic analysis; assay type: organism-based; conditions: in vivo, 1344 h
[35] = Toxicity in BALB/c mouse xenografted with human BXPC-3 cells assessed as effect on liver at 30 mg/kg,po administrated once daily for 8 weeks by H and E staining based microscopic analysis; assay type: organism-based; conditions: in vivo, 1344 h
[36] = Toxicity in BALB/c mouse xenografted with human BXPC-3 cells assessed as effect on spleen at 30 mg/kg,po administrated once daily for 8 weeks by H and E staining based microscopic analysis; assay type: organism-based; conditions: in vivo, 1344 h
[37] = Toxicity in BALB/c mouse xenografted with human BXPC-3 cells assessed as effect on lung at 30 mg/kg,po administrated once daily for 8 weeks by H and E staining based microscopic analysis; assay type: organism-based; conditions: in vivo, 1344 h
[38] = Toxicity in BALB/c mouse xenografted with human BXPC-3 cells assessed as effect on kidney at 30 mg/kg,po administrated once daily for 8 weeks by H and E staining based microscopic analysis; assay type: organism-based; conditions: in vivo, 1344 h

Chain of Cytochrome P450 2D6 (P10635 whole entry): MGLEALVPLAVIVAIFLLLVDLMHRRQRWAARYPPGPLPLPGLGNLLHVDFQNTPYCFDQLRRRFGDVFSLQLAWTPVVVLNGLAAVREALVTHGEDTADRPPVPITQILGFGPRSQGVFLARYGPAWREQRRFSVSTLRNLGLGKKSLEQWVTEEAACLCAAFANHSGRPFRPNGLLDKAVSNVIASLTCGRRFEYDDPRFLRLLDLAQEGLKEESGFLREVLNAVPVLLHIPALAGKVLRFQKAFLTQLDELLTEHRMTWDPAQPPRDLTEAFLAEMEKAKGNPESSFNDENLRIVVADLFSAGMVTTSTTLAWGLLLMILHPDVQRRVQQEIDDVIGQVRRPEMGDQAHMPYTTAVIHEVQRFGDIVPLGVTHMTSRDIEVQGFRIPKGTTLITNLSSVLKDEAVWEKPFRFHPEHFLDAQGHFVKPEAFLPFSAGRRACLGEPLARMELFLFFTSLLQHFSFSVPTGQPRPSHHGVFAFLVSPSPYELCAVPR
Chain of Cytochrome P450 2C9 (P11712 whole entry): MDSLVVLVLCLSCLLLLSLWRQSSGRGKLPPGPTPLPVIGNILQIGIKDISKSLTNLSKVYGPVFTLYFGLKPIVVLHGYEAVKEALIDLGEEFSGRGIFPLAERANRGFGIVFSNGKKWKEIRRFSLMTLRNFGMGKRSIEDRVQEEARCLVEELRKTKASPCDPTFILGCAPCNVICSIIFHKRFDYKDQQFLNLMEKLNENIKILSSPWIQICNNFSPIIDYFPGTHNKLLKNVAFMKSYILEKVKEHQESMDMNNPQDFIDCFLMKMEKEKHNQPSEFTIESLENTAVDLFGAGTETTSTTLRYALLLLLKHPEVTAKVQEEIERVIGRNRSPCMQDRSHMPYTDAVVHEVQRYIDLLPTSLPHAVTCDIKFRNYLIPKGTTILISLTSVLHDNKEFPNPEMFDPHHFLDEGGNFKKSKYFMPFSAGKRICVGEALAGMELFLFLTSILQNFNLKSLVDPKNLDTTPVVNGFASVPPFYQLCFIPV
Chain of Cytochrome P450 3A4 (P08684 whole entry): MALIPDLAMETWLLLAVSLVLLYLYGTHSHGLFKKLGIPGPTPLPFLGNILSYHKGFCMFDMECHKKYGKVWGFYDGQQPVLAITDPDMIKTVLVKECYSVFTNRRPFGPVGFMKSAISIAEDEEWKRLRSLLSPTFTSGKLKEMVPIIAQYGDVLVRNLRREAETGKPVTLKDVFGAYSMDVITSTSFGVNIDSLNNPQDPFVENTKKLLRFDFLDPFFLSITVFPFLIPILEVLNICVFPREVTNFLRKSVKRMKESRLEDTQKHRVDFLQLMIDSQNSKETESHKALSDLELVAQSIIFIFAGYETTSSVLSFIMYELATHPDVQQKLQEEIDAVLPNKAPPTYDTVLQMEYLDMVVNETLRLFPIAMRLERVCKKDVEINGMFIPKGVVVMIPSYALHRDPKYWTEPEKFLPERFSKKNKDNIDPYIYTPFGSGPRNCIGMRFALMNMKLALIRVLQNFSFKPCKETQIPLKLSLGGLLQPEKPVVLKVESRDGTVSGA
Chain of Cytochrome P450 2C19 (P33261 whole entry): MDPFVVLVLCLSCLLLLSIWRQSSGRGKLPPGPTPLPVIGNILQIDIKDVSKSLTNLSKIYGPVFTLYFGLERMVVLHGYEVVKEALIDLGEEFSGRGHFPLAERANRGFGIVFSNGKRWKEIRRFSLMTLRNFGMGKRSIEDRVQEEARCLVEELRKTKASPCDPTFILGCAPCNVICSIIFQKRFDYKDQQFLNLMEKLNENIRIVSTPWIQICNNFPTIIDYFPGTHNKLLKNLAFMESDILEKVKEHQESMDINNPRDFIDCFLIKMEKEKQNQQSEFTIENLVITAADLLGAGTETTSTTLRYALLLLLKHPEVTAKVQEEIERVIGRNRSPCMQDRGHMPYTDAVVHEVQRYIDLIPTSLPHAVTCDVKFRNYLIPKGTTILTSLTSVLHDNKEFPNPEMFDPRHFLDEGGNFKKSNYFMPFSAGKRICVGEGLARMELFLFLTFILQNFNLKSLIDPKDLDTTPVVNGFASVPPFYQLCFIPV
Chain of Signal transducer and activator of transcription 3 (P40763 whole entry): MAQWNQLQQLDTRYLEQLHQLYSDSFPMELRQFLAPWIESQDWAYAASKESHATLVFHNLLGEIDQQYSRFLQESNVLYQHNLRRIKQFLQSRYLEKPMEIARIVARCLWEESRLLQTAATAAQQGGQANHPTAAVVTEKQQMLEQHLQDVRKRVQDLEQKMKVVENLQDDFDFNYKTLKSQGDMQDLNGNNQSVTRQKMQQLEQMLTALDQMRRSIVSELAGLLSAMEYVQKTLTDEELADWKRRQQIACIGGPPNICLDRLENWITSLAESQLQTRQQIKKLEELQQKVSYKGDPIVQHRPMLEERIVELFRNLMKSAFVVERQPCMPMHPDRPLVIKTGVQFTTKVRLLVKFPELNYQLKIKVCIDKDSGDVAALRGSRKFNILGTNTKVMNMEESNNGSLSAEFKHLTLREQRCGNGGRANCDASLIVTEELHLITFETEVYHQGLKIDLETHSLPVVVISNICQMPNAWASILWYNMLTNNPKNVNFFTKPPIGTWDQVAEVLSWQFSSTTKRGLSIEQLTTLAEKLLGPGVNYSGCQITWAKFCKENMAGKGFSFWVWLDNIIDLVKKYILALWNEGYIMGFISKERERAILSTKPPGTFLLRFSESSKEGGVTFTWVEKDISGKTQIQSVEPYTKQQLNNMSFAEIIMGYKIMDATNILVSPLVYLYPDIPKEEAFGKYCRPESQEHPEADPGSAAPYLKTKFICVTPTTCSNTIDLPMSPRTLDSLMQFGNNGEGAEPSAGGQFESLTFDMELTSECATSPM

With `Cn1c(C(=O)N2CCN(Cc3ccc(OCC(F)(F)F)cc3)CC2)cc2ccc(Oc3cnc(-c4nc(-c5ccc(F)cc5)no4)cn3)cc21` the IC50 [1] was 5.9 nM, the IC50 [2] was 2.4 nM and the IC50 [3] was 1.4 nM. It also gave an IC50 [4] of 6.4 nM, a half-life [5] of 1.22 h and a half-life [6] of 1.24 h. It also gave a half-life [7] of 1.07 h, a microsomal CLint [8] of 18.9 µL/min/mg and a microsomal CLint [9] of 18.6 µL/min/mg. It also gave a microsomal CLint [10] of 21.5 µL/min/mg, a remaining at 1 h [11] of 57.6% and a remaining at 1 h [12] of 55.4%. For the same molecule, the remaining at 1 h [13] was 50.9%, the IC50 [14] was over 50000 nM and the IC50 [15] was over 50000 nM. It also gave an IC50 [16] of over 50000 nM, an IC50 [17] of over 50000 nM and an IC50 [18] of over 50000 nM. It also gave a Cmax [19] of 2910 ng/mL, an AUC(0-t) at 24 h [20] of 8680 ng·h/mL and an AUC(0-inf) [21] of 13800 ng·h/mL. The Vdss [22] was 3.7352 L/kg, the CL [23] was 1.24 mL/min/kg and the MRTlast [24] was 15 h. It also gave a half-life [25] of 17.7 h, a Cmax [26] of 669 ng/mL and an AUC(0-t) at 24 h [27] of 10900 ng·h/mL. The AUC(0-inf) [28] was 12300 ng·h/mL, the MRT last at 24 h [29] was 15.6 h and the half-life [30] was 13.9 h. For the same molecule, the bioavailability [31] was 12.5%.
For `CC(=O)c1cc2c(o1)C(=O)c1ccccc1C2=O` [NAPABUCASIN], the IC50 [2] was 1960 nM, the IC50 [3] was 5310 nM and the IC50 [4] was 1590 nM. For the same molecule, the inhibition in vivo at 30 mg/kg [32] was 26.1%, the Activity [33] was “Non-Toxic” and the Activity [34] was “Non-Toxic”. For the same molecule, the Activity [35] was “Non-Toxic”, the Activity [36] was “Non-Toxic” and the Activity [37] was “Non-Toxic”. The Activity [38] was “Non-Toxic”.

— ChEMBL document CHEMBL5096221, “Discovery of a Highly Potent and Orally Bioavailable STAT3 Dual Phosphorylation Inhibitor for Pancreatic Cancer Treatment” (J Med Chem, 2022)
